Test results reported in PMC11170954, “Effect of Peptide–Polymer Host–Guest Electrostatic Interactions on Self-Assembling Peptide Hydrogels Structural and Mechanical Properties and Polymer Diffusivity” (Biomacromolecules, 2024).
Ends that are not written are not given here.

Columns and labels:
[1] = Peptide titration with NaOH (pKa-like transitions, net charge assignment); format: physicochemical; conditions: stepwise NaOH addition to peptide solution in HPLC grade water; for first pKa-like transition (deprotonation of glutamic acid side groups), pH: start pH ∼3.2, transition observed up to this pH
Procedure: Peptide titration experiments were performed by adding 0.1 or 0.5 M NaOH solutions in 1–2 μL steps to a 1 mL HPLC-grade water peptide solution with a 2 mg mL^–1 starting concentration. After each NaOH addition, the samples were vigorously agitated using a vortex to ensure homogeneous mixing and the pH was measured using a Fisherbrand Hydrus 300 benchtop pH meter.
As stated in the introduction, these two peptides were designed to be “symmetrical” in relation to the position and distribution of their anionic (COOH/COO^–) and cationic (NH3^+/NH2) groups and to carry an overall theoretical net charge modulus of 1 at pH 7. As shown in our previous work, self-assembly can induce a shift in pKa of these ionic groups depending on the surrounding environment created.[26],[38] To investigate the effect of self-assembly on pKa of these groups, titration experiments were performed on each peptide at a […] concentration. The resulting curves are presented in Figure 2A, B. Both peptides were purchased as HCl salts; therefore, when dissolved in water low pH, ∼ 3.2, solutions were obtained. Upon addition of NaOH a first pKa-like transition was observed up to pH 5 for K(FEFK)2 and pH 4.5 for E(FKFE)2. This first transition is associated in both cases with deprotonation of the glutamic acid side groups.

[2] = Small-angle X-ray scattering of hydrogels; format: physicochemical; conditions: for fibers cross-section radius of gyration, Rσ: SAXS Guinier fit, hydrogels 6 mg mL^–1, pH 7; for estimated fiber diameter, df: from Rσ assuming cylindrical geometry
Procedure: SAXS experiments were performed on beamline I22 at the diamond light source (DLS) synchrotron (Didcot, UK).[31] The energy of the beam was 12.4 keV, corresponding to an X-ray wavelength of 0.1 nm. Quartz capillaries (1.5 mm outer diameter and 0.01 mm wall thickness) from Capillary Tube Supplies Ltd. (Bodmin, UK) were used as sample holders. The samples were prepared as described earlier and injected into the capillaries using a syringe. The sample-to-detector distance was fixed to 5.77 m, corresponding to an accessible momentum transfer vector range of 0.1 nm^–1 < q = (4π/λ) sin(θ/2) < 3.0 nm^–1, where θ is the scattering angle and λ is the wavelength of the incident photons. Calibration of the SAXS detector (Pilatus P3–2M, Dectris, Switzerland) was performed using silver behenate powder, and data were collected as 10 × 100 ms frames. Data were reduced using the Dawn software suite available from DLS.[32] The 2D isotropic scattering patterns were corrected for the detector response, dark current background, and sample transmission and then azimuthally integrated to generate 1D scattering patterns. Under these conditions, the sample coherent normalized scattering intensity IN(q) is [drawing 2] 1 where Ip(q) is the normalized intensity scattered by the sample, Is(q) is the normalized intensity scattered by the solvent in our case HPLC grade water, Cp is the peptide concentration in g cm^–3, and Ib is the background scattering originating mainly from the incoherent scattering of the peptides. Is(q) was obtained by measuring the scattering of the solvent, HPLC grade water, and Ib was estimated using the Porod law that gives the scattered intensity of a two-phase system at high q values: [drawing 3] 2 where Kp is the Porod constant. Ib was estimated by fitting the last 40 data points of the 1D scattering patter using a Porod plot [q^4I(q) vs q^4].[33]−[36]
The formation of fibers and fibrillar entangle networks was confirmed by SAXS and TEM. […] From a Guinier representation, ln qI(q) vs q^2, the fibers cross-section radius of gyration, Rσ, can be obtained. Indeed, it has been shown that for thin rod-like structures for qRσ < 1 the scattering intensity can be written as[34],[39] [drawing 4] 3
From the fitting of the linear region, Rσ values of 1.2 ± 0.2 nm for K(FEFK)2 and 1.4 ± 0.2 nm for E(FKFE)2 were obtained. Assuming a cylindrical geometry, Rσ can be related to the fiber diameter, df, through: [drawing 5] 4

TEM fiber width analysis = format: physicochemical; conditions: log-normal fit, 700 fibers, cut-off 20 nm, hydrogels 12 mg mL^–1 peptide (0.8 mg mL^–1 polymer where loaded), pH 7, diluted 20-fold
Procedure: Hydrogels were prepared as described earlier and diluted 20-fold using HPLC-grade water. The samples were vigorously mixed with a vortex to separate as much as possible the fibers. A carbon-coated copper grid (400 mesh grid Electron Microscopy Sciences, Hatfield, Pennsylvania, USA) was glow discharged and charged negatively. The carbon copper grid was then placed sequentially on a 10 μL sample droplet for 60 s, a 10 μL droplet of HPLC grade water for 10 s three times, a 10 μL droplet of 5% uranyl acetate solution for 30 s, and finally, on a 10 μL droplet of HPLC grade water for 10 s. After each step, excess liquid was drained off using lint-free tissue (90 mm Whatman 1). The grid was then left to air-dry for 2–5 min. TEM images were taken using an FEI Tecnai12 BioTwin transmission electron microscope running at 100 kV and equipped with a Gatan Orius SC1000A CCD camera. Fiber width analysis was performed by measuring randomly the widths of 700 fiber (cut-off size 20 nm) using ImageJ software across at least three TEM images for each sample.

[3] = Hydrogel behaviour in cell culture media without cells; format: physicochemical; conditions: after 14 days in cell culture media (DMEM, αMEM), no cells, 37 °C
Procedure: Rheological measurements were performed using a Discovery Hybrid 2 (DHR-2) rheometer from TA Instruments (New Castle, Delaware, USA) using a 20 mm parallel plate geometry and a 500 μm gap. Samples were prepared as described earlier. Hydrogels (200 μL) were pipetted onto the rheometer’s static bottom plate and the rheometer top plate lowered to the desired gap size. For hydrogel in cell culture inserts and conditioned with cell culture media (see below), the bottom membranes of the insets were removed, and the hydrogels deposited on the rheometer’s static bottom plate. Samples were covered with a solvent trap to avoid evaporation and left to equilibrate at 37 °C for 180 s before the experiments. Strain sweep experiments were performed at 1 Hz in the 0.01–100% strain range. The shear-thinning and recovery (i.e., injectability) experiments were performed by applying sequentially a low shear strain (0.2%) for 5 min followed by a high shear strain (1000%) for 1 min and again a low shear strain (0.2%) for 5 min.
Hydrogel samples were removed from the fridge (4 °C) and prewarmed to 37 °C. Cells were encapsulated into the hydrogel by gentle pipetting to ensure an evenly mixed sample, at a final density of 1 × 10^6 cells mL^–1. 100 μL of cell-laden hydrogel was then dispensed into ThinCert inserts (Greiner Bio-One) in 24-well plates and cell culture medium (1 mL) was added into each well/insert. […]

[4] = Swelling / stability of hydrogels in excess water; format: physicochemical; conditions: 12 mg mL^–1 peptide, 0.8 mg mL^–1 polymer where loaded, 1 mL gel + 3 mL HPLC grade water
Procedure: Hydrogels were prepared as described earlier at 12 mg mL^–1, and 1 mL was transferred into 5 mL cylindrical glass vials. Vials were gently tapped on the bench to eliminate any bubbles and obtained flat surfaces, and the height of the hydrogels was measured (day 0). Three milliliters of HPLC-grade water was then added on the top of the hydrogels. After being stored the samples for 10 days at 37 °C, the vials were inverted, and the height of the hydrogels was measured once again (day 10). The swelling ratio (Q) was defined as (H1 – H0)/H0, where H0 is the height of the hydrogel at day 0 and H1 is the height of the hydrogel at day 10.

3T3 mouse fibroblast = assay: 3D cell culture, PicoGreen assay; format: cell-based; conditions: 3T3 fibroblasts, 3D culture, 14 days; hydrogel prepared at 20 mg mL^–1
Procedure: (§1) 3T3 mouse fibroblast and an immortalized human bone marrow-derived MSC line (Y201)[37] were used to assess the cytocompatibility of the hydrogels. The 3T3 cells were cultured in Dulbecco’s Modified Eagle’s Medium (DMEM) (Gibco), 1% penicillin–streptomycin (Sigma–Aldrich, P0781), and 10% fetal bovine serum (Sigma–Aldrich, F9665), while the MSCs were cultured in Minimum Essential Medium Eagle (αMEM) (Sigma-Aldrich, M4526), 10% fetal bovine serum (Sigma–Aldrich, F7524), 1% antibiotic/antimycotic solution (Sigma–Aldrich, A5955), 1% GlutaMAX (Life Technologies, 35050038), and 0.01% L-ascorbic acid 2-phosphate (Sigma–Aldrich, A8960). Cells were harvested when reaching 70–80% confluency. For cell counting, the cell suspension was mixed (1:1 ratio) with a 0.4% trypan blue solution (Bio-Rad) and cell counted using an automated cell counter (Cellometer Auto 1000, Nexcelom).
(§2) Hydrogel samples were removed from the fridge (4 °C) and prewarmed to 37 °C. Cells were encapsulated into the hydrogel by gentle pipetting to ensure an evenly mixed sample, at a final density of 1 × 10^6 cells mL^–1. 100 μL of cell-laden hydrogel was then dispensed into ThinCert inserts (Greiner Bio-One) in 24-well plates and cell culture medium (1 mL) was added into each well/insert. 250 μL was added to the top of the hydrogel surface in the inset, and 750 μL was added to the well. Cell culture plates were then incubated at 37 °C with 5% of the CO2. The growth medium was changed every 20 min during the first hour of the experiment and subsequently every 2 days.
(§3) To quantify the number of cells present in the hydrogels, the amount of cells’ dsDNA was quantified via PicoGreen assay (Invitrogen, Thermo Fisher Scientific). […] When ready for analysis, the samples were removed from the −20 °C freezer, thawed at room temperature, and agitated until homogeneous. […] The assay plate was incubated at room temperature in the dark for 5 min then measured using a plate reader (CLARIOstar), using fluorescence detection with excitation at 480–512 nm and emission at 520 nm. […]

[5] = system: immortalized human bone marrow-derived MSC line (Y201); assay: 3D cell culture, PicoGreen assay; format: cell-based; conditions: MSCs, 3D culture, over 14 days
Procedure: as §1, §2, §3

[6] = system: immortalized human bone marrow-derived MSC line (Y201); format: cell-based
Procedure: as §1, §2
To assess cell viability in the hydrogels, the live/dead assay (Thermo Fisher Scientific) was used. The cell culture medium was removed, and the samples were washed 3 times with DPBS. A working solution of staining reagent was prepared in DPBS (4 μM ethidium homodimer I and 2 μM calcein-AM) and 100 μL was added to the top of the hydrogel surfaces (in the insets) and a further 600 μL into the wells. […]

Row | Sequence | pKa-like transition assigned to deprotonation of lysine side chain amino groups, pH from which upward [1] | first pKa-like transition (deprotonation of glutamic acid side groups), pH [1] | fibers cross-section radius of gyration, Rσ [2] | estimated fiber diameter, df [2] | fiber widths distribution maximum (TEM fiber width analysis) | hydrogel integrity when extracted from cell culture inserts [3] | swelling ([4]; day 10, 37 °C) | cell proliferation (cell number, PicoGreen) (3T3 mouse fibroblast) | change in cell number (PicoGreen) [5] | cell viability (live/dead) [6] | hydrogel stability in excess water ([4]; 10 days, 37 °C) | hydrogel stability in MSC culture ([6]; after 14 days of 3D culture with MSCs) | shift of terminal NH3+ apparent pKa vs theoretical
1 | KFEFKFEFK [K(FEFK)2] | ≥ 9.5 pH | ≤ 5 pH | 1.2 ± 0.2 nm | 3.3 ± 0.5 nm | 4.9 ± 1.0 nm | keep their integrity and shape | ~30 % (v/v) | Significant proliferation | no significant change in cell number | good |  |  | 
2 | EFKFEFKFE [E(FKFE)2] | ≥ 10.0 pH | ≤ 4.5 pH | 1.4 ± 0.2 nm | 4.0 ± 0.5 nm | 4.5 ± 0.9 nm | some loss of integrity and loss of shape |  |  | decrease in cell number | higher | unstable and after 10 days dissolved | dissolve | 1 unit
